Laboratory results from US11969412B2, “Methods and compounds for the treatment or prevention of hypercytokinemia and severe influenza” (Poolbeg Pharma (UK) Limited, priority 2017, dated 2024).
Like-named read-outs stand apart in the source and are kept apart here.

Legend:
[1] = test system: immune cells (PBMCs plus granulocytes stimulated with A549 viral soup); experiment: cells; type: cell-based, human
[2] = test system: endothelial cells (HUVECs); experiment: cells; type: cell-based, human
[3] = test system: immune cells (PBMCs); type: cell-based, human
[4] = test system: HBEC cells; experiment: Inflammatory mediator production in HBEC cells after HBEC viral soup (MSD analysis); type: cell-based, human; conditions: HBECs treated prior to HBEC viral soup
[5] = test system: p38MAPK; experiment: Western blotting of p38MAPK and HSP27 phosphorylation in A549 cells after A549 viral soup; type: cell-based, human; conditions: western blot
Procedure: In vitro data were generated from A549 cells to test the effect of A549 viral soup application on p38 activation as measured by western blotting of the phosphorylation status of p38MAPK itself and downstream signalling target, HSP27. For western blotting confluent cells were washed in PBS and lysed in RIPA with protease inhibitor (Sigma-P8340), phosphatase inhibitor cocktails 2 and 3 (Sigma P5726 and P0044) and phosphatase inhibitors Na3VO4 and NaF on ice. Protein concentrations were determined using the Pierce BCA Protein Assay Kit and equal concentrations of each sample created in 4× Laemmli sample buffer (BIO-RAD 161-0747) with 2-mercaptoethanol. Samples were run on a 12% gel and then transferred on to nitrocellulose. Membranes were blocked using 5% milk powder, then hybridised with p38 MAPK rabbit antibody (Cell Signalling Technologies, cat. no. 9212S) and phosphorylated p38 MAPK rabbit antibody (Cell Signalling Technologies, cat. no. 9211S), or HSP27 antibody (Cell signalling Technologies, cat. no. 2402) and phospho-HSP27 antibody (Cell signalling Technologies, cat. no. 9709). Secondary antibodies were anti-rabbit HRP (Cell signalling Technologies catalogue no. CS7074P2) and anti-mouse HRP (Cell signalling, catalogue no. 7076S), respectively. Membranes were stripped for re-probing using Restore™ PLUS Western Blot Stripping Buffer (Life technologies #46430). […]

[6] = test system: p38MAPK; experiment: Western blotting of HSP27 phosphorylation in HUVEC cells after HBEC viral soup; type: cell-based, human; conditions: pre-incubation, western blot
Procedure: For western blotting confluent cells were washed in PBS and lysed in RIPA with protease inhibitor (Sigma-P8340), phosphatase inhibitor cocktails 2 and 3 (Sigma P5726 and P0044) and phosphatase inhibitors Na3VO4 and NaF on ice. […] The membranes were treated with Amersham ECL Prime Western Blotting Detection Reagent (GE/Amersham #RPN2232) and imaged using ChemiDoc™ Touch Imaging System (BIORAD). Analysis was performed using the Image Lab software.
In vitro data were generated from HUVEC cells to test the effect of HBEC viral soup application on p38 activation as measured by western blotting of the phosphorylation status of the p38MAPK downstream signalling target, HSP27.

[7] = test system: p38MAPK; experiment: Western blotting of HSP27 phosphorylation in immune cells (PBMCs) after A549 viral soup; type: cell-based, human; conditions: pre-incubation, western blot
[8] = test system: influenza virus; conditions: cited from earlier work; for survival rate at Day 20 of infection: controls 14%
[9] = Homo sapiens, A549, read-out: IC50 IL8
[10] = Homo sapiens, A549, read-out: IC50 TNFa
[11] = Homo sapiens, A549, read-out: IC50 IL1B
[12] = Homo sapiens, A549, read-out: IC50 IL6
[13] = Homo sapiens, HUVEC, read-out: IC50 IL10

## Nc1ccc2ncnc(NCCc3ccc(Oc4ccccc4)cc3)c2c1 [QNZ (EVP4593)]
[1]
  iMax IL8: 47%
  iMax TNFa: 37%
[1]; read-out: IC50 IL8
  IC50: 0.2 nM
[1]; read-out: IC50 TNFa
  IC50: 43.6 nM
[2]
  iMax IL8: 60%
  iMax IL10: 72%
  iMax MCP1: 44%
[2]; read-out: IC50 IL8
  IC50: 6.5 nM
[2]; read-out: IC50 IL10
  IC50: 3.3 nM
[2]; read-out: IC50 MCP1
  IC50: 3.84 nM

## Cn1cc2c(-c3ccc(F)cc3)c(-c3ccncc3)c(-c3ccc(F)cc3)nc2n1 [Formula III]
[2]
  production of IL-8 and IP-10: attenuate
[3]
  production of TNFα and IL-8: attenuate
[4]
  release of IL-6 and IP-10: attenuated

## Selumetinib
[2]
  dose-dependent inhibition of IP10 production: Neither Refametinib nor Selumetinib showed dose-dependent inhibition
  levels of IP10 at higher drug concentrations: appeared to increase

## OCCCn1cc2c(-c3ccc(F)cc3)c(-c3ccncc3)c(-c3ccc(F)cc3)nc2n1 [Formula II]
[2]
  attenuating the inflammatory response in endothelial cells, compared with Formula III: consistently better effects than the compound of Formula III
  production of IL-8 and IP-10: attenuate
[3]
  attenuating the inflammatory response in immune cells, compared with Formula III: consistently better effects than the compound of Formula III
  production of MIP-1a and IL-8 (TNFa plus IL-6 as stimulus) and TNFa and IL-8 (A549 virus soup as stimulus): attenuate

## COc1cc(F)c(F)c(Nc2ccc(I)cc2F)c1NS(=O)(=O)C1(C[C@H](O)CO)CC1 [Refametinib]
[2]
  dose-dependent inhibition of IP10 production: Neither Refametinib nor Selumetinib showed dose-dependent inhibition
  levels of IP10 at higher drug concentrations: appeared to increase

## O=C(Nc1c(Cl)cncc1Cl)c1ccc(OC(F)F)c(OCC2CC2)c1 [Roflumilast]
[1]
  iMax IL8: 31%
  iMax TNFa: 74%
[1]; [9]
  IC50: 0.09 nM
[1]; [10]
  IC50: 10.8 nM

## CC[C@H]1OC(=O)[C@H](C)[C@@H](O[C@H]2C[C@@](C)(OC)[C@@H](O)[C@H](C)O2)[C@H](C)[C@@H](O[C@@H]2O[C@H](C)C[C@H](N(C)C)[C@H]2O)[C@](C)(O)C[C@@H](C)CN(C)[C@H](C)[C@@H](O)[C@]1(C)O [Azithromycin]
[1]
  iMax IL1B: 50%
  iMax IL6: 45%
  iMax IL8: 46%
  iMax TNFa: 63%
[1]; [11]
  IC50: 0.5 nM
[1]; [12]
  IC50: 119 nM
[1]; [9]
  IC50: 0.8 nM
[1]; [10]
  IC50: 86.9 nM

## CNC(=O)c1ccc(C)c(-n2c(C)cc(OCc3ccc(F)cc3F)c(Br)c2=O)c1 [PH797804]
[1]
  iMax IL1B: 79%
  iMax IL8: 87%
  iMax TNFa: 91%
[1]; [11]
  IC50: 9.7 nM
[1]; [9]
  IC50: 2.3 nM
[1]; [10]
  IC50: 3.9 nM
[2]
  iMax IL8: 86%
  iMax IL10: 88%
  iMax MCP1: 36%
[2]; Homo sapiens, HUVEC, read-out: IC50 IL8
  IC50: 28.9 nM
[2]; [13]
  IC50: 7.5 nM
[2]; Homo sapiens, HUVEC, read-out: IC50 MCP1
  IC50: 13.1 nM
[5]
  induction of both p38MAPK and HSP27 phosphorylation: dose dependently inhibit
[3]
  A549 viral soup induced release of TNFα, IL-1-β, IL-6 and CXCL8: significantly attenuate

## Cc1cc(F)ccc1-c1nc(NC(CO)CO)nc2c1ccc(=O)n2-c1c(F)cccc1F [Dilmapimod]
[5]
  induction of both p38MAPK and HSP27 phosphorylation: dose dependently inhibit
[6]
  induction of HSP27 phosphorylation: dose dependently inhibit
[7]
  induction of HSP27 phosphorylation: dose dependently inhibit
[3]
  A549 viral soup induced release of TNFα, IL-1-β, IL-6 and CXCL8: significantly attenuate

## C[C@H]1C[C@@H]2[C@H]([C@@H](O)C[C@@]3(C)[C@H]2CC[C@]3(O)C(=O)CO)[C@@]2(C)C=CC(=O)C=C12 [Methyl Prednisolone]
[1]
  iMax IL1B: 77%
  iMax IL6: 57%
  iMax IL8: 90%
  iMax TNFa: 79%
[1]; [11]
  IC50: 8.4 nM
[1]; [12]
  IC50: 36.6 nM
[1]; [9]
  IC50: 8.4 nM
[1]; [10]
  IC50: 20.2 nM

## CCc1ccc(CCOc2ccc(CC3SC(=O)NC3=O)cc2)nc1 (centres unmarked) [Pioglitazone]
[1]
  iMax IL6: 41%
  iMax IL8: 37%
[1]; [12]
  IC50: 0.02 nM
[1]; [9]
  IC50: 0.1 nM

## CC[C@H]1OC(=O)[C@H](C)[C@@H](O[C@H]2C[C@@](C)(OC)[C@@H](O)[C@H](C)O2)[C@H](C)[C@@H](O[C@@H]2O[C@H](C)C[C@H](N(C)C)[C@H]2O)[C@](C)(O)C[C@@H](C)C(=O)[C@H](C)[C@@H](O)[C@]1(C)O [EM]
[8]; 1.0 mg/kg/d
  survival rate at Day 20 of infection: 42%
[8]; 3.3 mg/kg/d intraperitoneally, Days 1-6 after infection
  survival rate of mice infected with influenza virus: significantly improved
[8]; 3.3 mg/kg/d
  survival rate at Day 20 of infection: 57%

## CC[C@H](C)C(=O)O[C@H]1C[C@H](O)C=C2C=C[C@H](C)[C@H](CC[C@@H](O)C[C@@H](O)CC(=O)O)[C@H]21 [Pravastatin]
[2]
  iMax IL10: 35%
[2]; [13]
  IC50: 78 nM
